# Reference: patent US20230270798A1, “SYNBIOTIC COMPOSITION” (SOCIETE DES PRODUITS NESTLE S.A., priority 2020, published 2023)
# Key:
# [1] = system: B. longum subsp. longum; assay: Short-term colonic incubation, population of B. longum subsp. longum (16S Illumina sequencing with flow cytometry); type: cell-based, Bifidobacterium longum subsp. longum; conditions: after 6 and 48 hours of incubation; synbiotic compared to the probiotic alone
# Description: (§1) The aim of this project was to evaluate the properties of a synbiotic combination of Bifidobacterium longum subsp. longum ATCC BAA-999 and LNT using short-term colonic incubations (48 h), in which the proximal colon environment of a baby was simulated. The evaluation was based on the effects on microbial metabolic activity (SCFA, lactate and ammonium production) and community composition (16Stargeted Illumina sequencing), through comparison with a blank (no treatment), a probiotic (containing only the B. longum subsp. longum strain) and a prebiotic (containing only LNT).
# (§2) In these experiments, a simplified simulation of the continuous Simulator of the Human Microbial Ecosystem (SHIME®) was used. […]
# (§3) To account for biological variability, all tests were performed in triplicate, resulting in 12 independent incubations. […] Ammonium concentrations were measured at the start and after 48 h of incubation. The effect on the gut microbial community was assessed through Illumina sequencing at the start of the incubation and after 6 h, and 48 h. […]
# [2] = system: Streptococcus salivarius; assay: Short-term colonic incubation, population of Streptococcus salivarius (16S Illumina sequencing with flow cytometry); type: cell-based
# Description: as §1, §2, §3
smiles,measurement,setting,value
"CC(=O)N[C@H]1[C@H](O[C@H]2[C@@H](O)[C@@H](CO)O[C@@H](O[C@H]3[C@H](O)[C@@H](O)C(O)O[C@@H]3CO)[C@@H]2O)O[C@H](CO)[C@@H](O)[C@@H]1O[C@@H]1O[C@H](CO)[C@H](O)[C@H](O)[C@H]1O (stereo partly drawn) [prebiotic, Lacto-N-tetraose]",population of B. longum subsp. longum (in words),[1],no effect
same,population of S. salivarius at 48 hours compared to the population at 6 hours (in words),[2]; 48 hours vs 6 hours,strongly decreases
same,boost of the population of Streptococcus salivarius (in words),[2]; after 6 and 48 hours of incubation,"neither the probiotic alone, nor the prebiotic alone were able to boost"
